Laboratory results: PubChem BioAssay AID330 (DTP/NCI, 2004)
Values joined by “and” are separate entries in the source; they are usually repeats but may differ in a detail not shown here. Identical values can stand only once. Toxic doses and inconclusive results are not listed.

System: P388 leukemia ip, CD2F1 mice, survival T/C
Assay: NCI In Vivo Anticancer Drug Screen. Data for tumor model P388 Leukemia (intraperitoneal) in CD2F1 (CDF1) mice
Settings: endpoint: median survival time, higher = longer survival
Summary of the method: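 Mice carrying the transplanted tumor received test compound or vehicle. Survival was recorded in each group, and the value is the treated-group measurement divided by that of the vehicle-treated control group.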

[1] = dose: 50.0 mg/kg/injection, schedule: Q01DX009 (ip), vehicle: saline
[2] = dose: 60.0 mg/kg/injection, schedule: Q01DX005 (ip), vehicle: saline
[3] = dose: 120.0 mg/kg/injection, schedule: Q01DX005 (ip), vehicle: saline
[4] = dose: 200.0 mg/kg/injection, schedule: Q01DX009 (ip), vehicle: saline
[5] = dose: 12.5 mg/kg/injection, schedule: Q01DX009 (ip), vehicle: saline with Tween-80
[6] = dose: 25.0 mg/kg/injection, schedule: Q01DX009 (ip), vehicle: saline with Tween-80
[7] = dose: 50.0 mg/kg/injection, schedule: Q01DX009 (ip), vehicle: saline with Tween-80
[8] = dose: 100.0 mg/kg/injection, schedule: Q01DX009 (ip), vehicle: saline with Tween-80
[9] = dose: 200.0 mg/kg/injection, schedule: Q01DX009 (ip), vehicle: saline with Tween-80
[10] = dose: 25.0 mg/kg/injection, schedule: Q04DX002 (ip), vehicle: saline with Tween-80
[11] = dose: 50.0 mg/kg/injection, schedule: Q01DX009 (ip), vehicle: Klucel (hydroxypropylcellulose) (HPC)
[12] = dose: 12.5 mg/kg/injection, schedule: Q01DX009 (ip), vehicle: saline
[13] = dose: 25.0 mg/kg/injection, schedule: Q01DX009 (ip), vehicle: saline
[14] = dose: 50.0 mg/kg/injection, schedule: Q01DX005 (ip), vehicle: saline with Tween-80

## O=C(O)C1=C/C(=C(/c2ccccc2)c2cc(C(=O)O)c(O)c3ccccc23)c2ccccc2C1=O
[1]
  T/C: 99 % of control
[2]
  T/C: 104 % of control
dose: 100.0 mg/kg/injection, schedule: Q01DX009 (ip), vehicle: saline
  T/C: 100 % of control
[3]
  T/C: 103 % of control
[4]
  T/C: 103 % of control
dose: 240.0 mg/kg/injection, schedule: Q01DX005 (ip), vehicle: saline
  T/C: 95 % of control

## CSC(=S)n1nc(C)c(N=Nc2ccc(Br)cc2)c1C
dose: 100.0 mg/kg/injection, schedule: Q04DX002 (ip), vehicle: Klucel (hydroxypropylcellulose) (HPC)
  T/C: 107 % of control
dose: 200.0 mg/kg/injection, schedule: Q04DX002 (ip), vehicle: Klucel (hydroxypropylcellulose) (HPC)
  T/C: 103 % of control
dose: 400.0 mg/kg/injection, schedule: Q04DX002 (ip), vehicle: Klucel (hydroxypropylcellulose) (HPC)
  T/C: 103 % of control

## O=C1CCSC(=S)N1c1ccc(Br)c(Cl)c1
dose: 50.0 mg/kg/injection, schedule: Q01DX009 (ip), vehicle: suspension in saline
  T/C: 116 % of control
dose: 100.0 mg/kg/injection, schedule: Q01DX009 (ip), vehicle: suspension in saline
  T/C: 116 % of control
dose: 200.0 mg/kg/injection, schedule: Q01DX009 (ip), vehicle: suspension in saline
  T/C: 106 % of control

## CN(C)C=C1C(=O)CCCC1=O
[2]
  T/C: 105 % of control
[3]
  T/C: 117 % of control

## Cc1ccccc1NCC#N
[5]
  T/C: 100 % of control
[6]
  T/C: 100 % of control
[7]
  T/C: 104 % of control

## Cc1nc2[nH]c(=S)[nH]c(=O)c2nc1C
[8]
  T/C: 104 % of control
dose: 100.0 mg/kg/injection, schedule: Q04DX003 (ip), vehicle: saline with Tween-80
  T/C: 95 % of control
[9]
  T/C: 100 % of control
dose: 200.0 mg/kg/injection, schedule: Q04DX003 (ip), vehicle: saline with Tween-80
  T/C: 95 % of control
dose: 400.0 mg/kg/injection, schedule: Q01DX009 (ip), vehicle: saline with Tween-80
  T/C: 95 % of control
dose: 400.0 mg/kg/injection, schedule: Q04DX003 (ip), vehicle: saline with Tween-80
  T/C: 95 % of control

## CCC/C(=N\N=C(N)N)c1ccc(Cl)cc1
[10]
  T/C: 100 % of control

## CN=C(N)N/N=C(\C)c1ccc2c(c1)Cc1cccc(Br)c1-2
[10]
  T/C: 111 % of control
dose: 50.0 mg/kg/injection, schedule: Q04DX002 (ip), vehicle: saline with Tween-80
  T/C: 109 % of control
dose: 100.0 mg/kg/injection, schedule: Q04DX002 (ip), vehicle: saline with Tween-80
  T/C: 109 % of control

## Cc1ccc2c(c1)sc1nnc(C)n12
[11]
  T/C: 114 % of control
dose: 100.0 mg/kg/injection, schedule: Q01DX009 (ip), vehicle: Klucel (hydroxypropylcellulose) (HPC)
  T/C: 97 % of control

## O=S(=O)(/N=C1/C=CC=CC1=C(N1CCOCC1)N1CCOCC1)c1ccccc1
dose: 50.0 mg/kg/injection, schedule: Q04DX003 (ip), vehicle: saline
  T/C: 104 % of control
dose: 100.0 mg/kg/injection, schedule: Q04DX003 (ip), vehicle: saline
  T/C: 111 % of control
dose: 200.0 mg/kg/injection, schedule: Q04DX003 (ip), vehicle: saline
  T/C: 105 % of control

## CC(C)[c-]1[c-][c-][c-][c-]1.CC(C)[c-]1[c-][c-][c-][c-]1.[Cl][Zr][Cl]
dose: 3.12 mg/kg/injection, schedule: Q01DX009 (ip), vehicle: saline with Tween-80
  T/C: 112 % of control
dose: 6.25 mg/kg/injection, schedule: Q01DX009 (ip), vehicle: saline with Tween-80
  T/C: 119 % of control
[5]
  T/C: 117 % of control

## CCCN(CCC)c1nc2ccc(NC(=O)OCC)cc2s1
[12]
  T/C: 95 % of control
[13]
  T/C: 100 % of control
[7]
  T/C: 101 % of control
[1]
  T/C: 100 % of control

## CNC(=O)OCc1nc(SC)n(Cc2ccccc2)c1COC(=O)NC
dose: 12.5 mg/kg/injection, schedule: Q01DX005 (ip), vehicle: saline with Tween-80
  T/C: 100 % of control
dose: 25.0 mg/kg/injection, schedule: Q01DX005 (ip), vehicle: saline with Tween-80
  T/C: 110 % of control
[14]
  T/C: 110 % of control and 116 % of control
dose: 100.0 mg/kg/injection, schedule: Q01DX005 (ip), vehicle: saline with Tween-80
  T/C: 106 % of control and 116 % of control

## CCCCn1ccc(=O)[nH]c1=O
dose: 50.0 mg/kg/injection, schedule: Q01DX005 (ip), vehicle: Klucel (hydroxypropylcellulose) (HPC)
  T/C: 93 % of control
dose: 100.0 mg/kg/injection, schedule: Q01DX005 (ip), vehicle: Klucel (hydroxypropylcellulose) (HPC)
  T/C: 99 % of control
dose: 200.0 mg/kg/injection, schedule: Q01DX005 (ip), vehicle: Klucel (hydroxypropylcellulose) (HPC)
  T/C: 101 % of control

## COc1cc2cc(c1Cl)N(C)C(=O)CC(OC(=O)C(C)N(C)C(=O)C(C)C)C1(C)OC1C(C)C1CC(O)(NC(=O)O1)C(OC)/C=C/C=C(C)C2OC (centres undefined)
dose: 4.0 micrograms/kg/injection, schedule: Q01DX009 (ip), vehicle: Klucel (hydroxypropylcellulose) (HPC)
  T/C: 157 % of control and 163 % of control
dose: 4.0 micrograms/kg/injection, schedule: Q01DX009 (ip), vehicle: distilled water + alcohol
  T/C: 108 % of control
dose: 8.0 micrograms/kg/injection, schedule: Q01DX009 (ip), vehicle: Klucel (hydroxypropylcellulose) (HPC)
  T/C: 168 % of control
dose: 8.0 micrograms/kg/injection, schedule: Q01DX009 (ip), vehicle: distilled water + alcohol
  T/C: 108 % of control and 115 % of control
dose: 15.5 micrograms/kg/injection, schedule: Q01DX009 (ip), vehicle: none
  T/C: 157 % of control
dose: 16.0 micrograms/kg/injection, schedule: Q01DX009 (ip), vehicle: Klucel (hydroxypropylcellulose) (HPC)
  T/C: 154 % of control
dose: 16.0 micrograms/kg/injection, schedule: Q01DX009 (ip), vehicle: distilled water + alcohol
  T/C: 100 % of control and 123 % of control
dose: 31.0 micrograms/kg/injection, schedule: Q01DX009 (ip), vehicle: none
  T/C: 150 % of control
dose: 32.0 micrograms/kg/injection, schedule: Q01DX009 (ip), vehicle: distilled water + alcohol
  T/C: 100 % of control
dose: 64.0 micrograms/kg/injection, schedule: Q01DX009 (ip), vehicle: Klucel (hydroxypropylcellulose) (HPC)
  T/C: 91 % of control
dose: 64.0 micrograms/kg/injection, schedule: Q01DX009 (ip), vehicle: distilled water + alcohol
  T/C: 100 % of control
dose: 128.0 micrograms/kg/injection, schedule: Q01DX009 (ip), vehicle: distilled water + alcohol
  T/C: 106 % of control

## Cc1c(-c2ccccc2)n(O)c(-c2ccccc2Cl)[n+]1[O-]
[7]
  T/C: 94 % of control
[8]
  T/C: 98 % of control
[9]
  T/C: 100 % of control

## CCOC(=O)CN=NNc1ccccc1C(=O)CC
dose: 100.0 mg/kg/injection, schedule: Q01DX001 (ip), vehicle: Klucel (hydroxypropylcellulose) (HPC)
  T/C: 98 % of control
dose: 200.0 mg/kg/injection, schedule: Q01DX001 (ip), vehicle: Klucel (hydroxypropylcellulose) (HPC)
  T/C: 100 % of control
dose: 400.0 mg/kg/injection, schedule: Q01DX001 (ip), vehicle: Klucel (hydroxypropylcellulose) (HPC)
  T/C: 100 % of control

## Cc1cc(C)c(N=Cc2cccs2)c(C)c1
[12]
  T/C: 107 % of control
[13]
  T/C: 111 % of control
[1]
  T/C: 101 % of control and 106 % of control
[4]
  T/C: 92 % of control

## OCC(Br)(Br)Br
dose: 100.0 mg/kg/injection, schedule: Q01DX001 (ip), vehicle: saline with Tween-80
  T/C: 100 % of control
dose: 200.0 mg/kg/injection, schedule: Q01DX001 (ip), vehicle: saline with Tween-80
  T/C: 98 % of control
dose: 400.0 mg/kg/injection, schedule: Q01DX001 (ip), vehicle: saline with Tween-80
  T/C: 100 % of control

## COC1=CC(=Nc2cc(Br)c(O)c(Br)c2)C=CC1=O
dose: 6.25 mg/kg/injection, schedule: Q01DX005 (ip), vehicle: saline
  T/C: 105 % of control
dose: 12.5 mg/kg/injection, schedule: Q01DX005 (ip), vehicle: saline
  T/C: 108 % of control
dose: 25.0 mg/kg/injection, schedule: Q01DX005 (ip), vehicle: saline
  T/C: 100 % of control
[14]
  T/C: 95 % of control

## O=c1oc(-c2ccco2)ns1
dose: 12.5 mg/kg/injection, schedule: Q01DX009 (ip), vehicle: Klucel (hydroxypropylcellulose) (HPC)
  T/C: 97 % of control
dose: 25.0 mg/kg/injection, schedule: Q01DX009 (ip), vehicle: Klucel (hydroxypropylcellulose) (HPC)
  T/C: 110 % of control
[11]
  T/C: 97 % of control

## Cc1c(-c2ccccc2)ccnc1/C=N/NC(=S)Nc1ccccc1
dose: 1.56 mg/kg/injection, schedule: Q01DX009 (ip), vehicle: saline
  T/C: 89 % of control
dose: 3.12 mg/kg/injection, schedule: Q01DX009 (ip), vehicle: saline
  T/C: 92 % of control
dose: 6.25 mg/kg/injection, schedule: Q01DX009 (ip), vehicle: saline
  T/C: 88 % of control and 95 % of control
[6]
  T/C: 89 % of control
[7]
  T/C: 89 % of control
[1]
  T/C: 86 % of control
